In patent US6486198B1, “Compounds and methods for the treatment of post traumatic stress disorder” (priority 1999, dated 2002):

Tests used:
[1] = tested on: simple and complex partial seizures and secondarily generalized seizures; details: cited from earlier work
[2] = tested on: seizures in rodent models of epilepsy; details: several rodent models; cited from earlier work
[3] = tested on: patients meeting DSM-IV criteria for chronic PTSD; assay: Discontinuation, side effects and tolerability in the PTSD patient study; format: in vivo, human
Excerpt: Thirty five (35) patients meeting DSM-IV criteria for chronic post-traumatic stress disorder (PTSD) were selected for a study of the effects of topiramate administration. Of these, […] had non-hallucinatory PTSD and 6 hallucinatory PTSD. The group with hallucinatory PTSD experienced auditory and/or visual hallucinations containing content specifically associated with identified traumatic events. Whether these were PTSD “flashbacks” or psychotic experiences were at times difficult to ascertain due to fluctuations in reality testing the hallucinations. For this reason, prior to being screened for PTSD, some patients had received psychiatric diagnoses of psychotic disorders despite meeting full diagnostic criteria for PTSD.
(§1) Topiramate was added naturalistically to existing pharmacotherapy (see Table 1 for concomitant medications at start of trial), starting at 25 mglday and increasing whenever possible by 25 to 50 mg/day every 3 to 4 days to clinical response. Target symptoms were DSM-IV PTSD criterion B symptoms of nightmares (N =24) and intrusions (intrusive recollections/flashbacks, N=35) involving re-experiencing of traumas. Definitions of improvement, as assessed from patient self-report, included “partial response” as “definite reduction in intensity and frequency of nightmares or intrusions”, and “full response” as “complete cessation of nightmares and intrusions for a sustained period”. Following the seminal observations, in order to systematically identify responsive symptoms, the next 17 patients completed a self-report scale, the PTSD Checklist—Civilian Version (PCL-C)15, at baseline and at 4 weeks after starting topiramate. The patients were instructed to complete the PCL-C for experiences corresponding to traumas consistent with DSM-IV criterion A for PTSD. Paired ttest scores for the PCL-C were calculated with Jandel SigmaStat® v. 2.0.
Thirteen patients eventually discontinued treatment: 9 due to side effects (urticaria [N=1], eating cessation [N=2], ocular and limb paresthesias [N=1], severe headaches [N=1], overstimulation/panic [N=2], emergent suicidal ideation [N=1], and memory concerns [N=1]) and 4 for other reasons (patient choice [N=1], lack of relapse upon medication interruption [N=2], lack of efficacy [N=1]). Five of the discontinuers had experienced full symptom remission prior to discontinuation and 3 additional patients reported partial response.
Discontinuation due to medication-associated side effects, such as nausea and memory concerns, may have been due to the presence of other medications, to medication interactions, or to individual variation in time needed to accommodate to initial side effects. Subsequent to discontinuation of topiramate, the patient who experienced urticaria continued to complain of unrelated episodes of urticaria. […] When they occurred, side effects were easily managed by dosage reduction or a brief hiatus in administration.

PTSD symptoms (PCL-C) = assay: PTSD Checklist-Civilian Version (PCL-C) self-report scale at baseline and 4 weeks after starting topiramate; format: in vivo, human; details: 17 patients
Procedure: as §1
Response was also assessed in 17 patients who completed the PCL-C prior to topiramate therapy and at Week 4 of treatment: mean total PCL-C scores were 60±10.4 at baseline and 39±10.5 at Week 4 (instrument range: 17 to 85, threshold for active PTSD=[…], paired t-test). Adjusting the baseline score by subtracting by 17 to set the score for no PTSD symptoms to zero, there was a 48% reduction (59.8 to 38.8)/(59.8-17) in total score. Subscale score reductions were similar for criterion B (re-experiencing), criterion C (avoidance), and criterion D (hyperarousal) symptoms: 60%, 49%, and 42%, respectively.

## CC1(C)O[C@@H]2[C@@H](CO[C@@]3(COS(N)(=O)=O)OC(C)(C)O[C@@H]23)O1 [Topiramate, 2,3:4,5-bis-O-(1-methylethylidene)-β-D-fructopyranose sulfamate]
[1]; adults and children
  Efficacy in treatment of seizure types: efficacy in the treatment of a broad range of seizure types
[1]; simple and complex partial seizures and secondarily generalized seizures
  Efficacy in clinical trials of human epilepsy: effective as adjunctive therapy or as monotherapy
[2]
  Seizure block in rodent models of epilepsy: effectively block seizures
[3]; PTSD patients
  Safety in the study: posed no safety issues
[3]; PTSD population
  Tolerability: appeared well tolerated
[3]; of 35 patients
  Patients discontinued due to side effects: 9
  Patients who eventually discontinued treatment: Thirteen
[3]; of thirteen discontinuers
  Additional discontinuers reporting partial response: 3 patients
  Discontinuers with full symptom remission prior to discontinuation: Five
PTSD symptoms (PCL-C); baseline vs Week 4
  PCL-C subscale score reduction, criterion B (re-experiencing): 60%
  PCL-C subscale score reduction, criterion C (avoidance): 49%
  PCL-C subscale score reduction, criterion D (hyperarousal): 42%
  Reduction in total PCL-C score (baseline adjusted by subtracting 17): 48%
PTSD symptoms (PCL-C); baseline 60±10.4, instrument range 17 to 85, threshold for active PTSD=50
  Mean total PCL-C score at Week 4: 39±10.5
